Measured values: patent US20230357253A1, “AGONISTS OF STIMULATOR OF INTERFERON GENES STING” (THE SCRIPPS RESEARCH INSTITUTE, priority 2020, published 2023)

How the values were obtained:
THP-1 Lucia ISG cells = experiment: ISRE-luciferase assay (ISG-LUC activation); format: cell-based; details: Homo sapiens, THP1-Lucia ISG, 24 hours, luciferase reporter
Procedure, shortened: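 THP-1 Lucia ISG cells at 5×10^5 cells/ml in 2% FBS medium were treated with test article or DMSO vehicle for 24 h. Secreted luciferase was read by luminescence and normalized to vehicle, reported as RLU.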

human STING protein = human STING protein (Homo sapiens (Human), UniProt Q86WV6); experiment: WT STING binding assay (HTRF, competition with labeled 2′3′cGAMP); details: recombinant 6×His-tagged human STING, three hours at room temperature
Sequence of human STING protein (Q86WV6 whole entry): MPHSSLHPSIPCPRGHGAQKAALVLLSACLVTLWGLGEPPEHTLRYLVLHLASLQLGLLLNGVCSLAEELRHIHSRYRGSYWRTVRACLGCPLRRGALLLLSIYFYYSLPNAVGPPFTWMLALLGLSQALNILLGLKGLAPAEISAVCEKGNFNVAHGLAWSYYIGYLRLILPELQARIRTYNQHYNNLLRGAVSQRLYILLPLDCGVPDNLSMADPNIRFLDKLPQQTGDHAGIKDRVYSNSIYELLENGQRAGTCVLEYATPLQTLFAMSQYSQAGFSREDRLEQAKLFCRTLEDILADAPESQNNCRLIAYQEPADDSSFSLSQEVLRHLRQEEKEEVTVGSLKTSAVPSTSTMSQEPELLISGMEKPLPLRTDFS
Description: WT STING binding assay (Cisbio, Catalog #64BDSTGPEH). […] Upon proximity of the two dyes, the excitation of the donor by the flash lamp on the PHERAstar FSX plate reader triggers a Fluorescence Resonance Energy Transfer (FRET) towards the acceptor, which in turn fluoresces at 665 nm. To assess the ability of the synthetic small molecule STING ligands to bind to human STING, a competitive assay format was applied. A 10-point titration of each of the synthetic ligands in 5 uL were transferred into a 384 well plate, followed by 20 uL of assay buffer containing the 6×His-tagged human STING protein and labeled 2′3′cGAMP ligand and incubated for three hours at room temperature. The raw values obtained from the PHERAstar were used to calculate the reported IC50 values (the signal is inversely proportional to the binding of the synthetic ligand) through curve fitting in Genedata. The percent inhibition was calculated based upon the maximal amount of binding by synthetic compound versus the maximum binding of unlabeled 2′3′ cGAMP which was used as a control in each assay.

Row | SMILES | EC50 (THP-1 Lucia ISG cells) | IC50 (human STING protein)
1 | NC(=O)c1nnn2nc(C(=O)Nc3cc(CCOc4cc(NC(=O)c5ccc(-n6ccnc6)nn5)c(C(=O)O)cc4F)c(F)cc3C(=O)O)ccc12 [Compound 135] | 50 to 500 nM | 10 to 100 nM
2 | O=C(Nc1cc(CCOc2cc(NC(=O)c3ccc4nnnn4n3)c(C(=O)O)cc2F)c(F)cc1C(=O)O)c1ccc2nnnn2n1 [Compound 160] | > 5000 nM | 100 to 1000 nM
3 | O=C(Nc1cc(OCCCCOc2ccc(C(=O)O)c(NC(=O)c3ccc4nnnn4n3)c2)c(F)cc1C(=O)O)c1ccc(-n2ccnc2)nn1 [Compound 57] | > 5000 nM | 10 to 100 nM
4 | COc1cc(C(=O)O)c(NC(=O)c2ccc3nnnn3n2)cc1CCOc1cc(NC(=O)c2ccc(-n3ccnc3)nn2)c(C(=O)O)cc1F [Compound 100] | 50 to 500 nM | 100 to 1000 nM
5 | COC(=O)c1ccc(OCCCCOc2cc(NC(=O)c3ccc4nnnn4n3)c(C(=O)O)cc2F)cc1NC(=O)c1ccc(-n2ccnc2)nn1 [Compound 62] | > 5000 nM | 100 to 1000 nM
6 | O=C(Nc1cc(OCCCCOc2cc(NC(=O)c3ccc4nnnn4n3)c(C(=O)O)cc2F)ccc1C(=O)O)c1ccc2nnnn2n1 [Compound 1, 4-(4-(4-carboxy-3-(tetrazolo[1,5-b]pyridazine-6-carboxamido)phenoxy)butoxy)-5-fluoro-2-(tetrazolo[1,5-b]pyridazine-6-carboxamido)benzoic acid] | 500 to 5000 nM | 100 to 1000 nM
7 | O=C(Nc1cc(CCOc2cc(NC(=O)c3ccc4nnnn4n3)c(C(=O)O)cc2F)ccc1C(=O)O)c1ccc(-n2ccnc2)nn1 [Compound 92] | 50 to 500 nM | 10 to 100 nM
8 | COc1cc(NC(=O)c2ccc(-n3ccnc3)nn2)c(C(=O)O)cc1CCCc1cc(NC(=O)c2ccc3nnnn3n2)c(C(=O)O)cc1F [Compound 101] | 50 to 500 nM | 100 to 1000 nM
9 | O=C(Nc1cc(CCOc2cc(NC(=O)c3ccc(-n4ccnc4)nn3)c(C(=O)O)cc2Cl)c(F)cc1C(=O)O)c1ccc(-n2ccnc2)nn1 [Compound 197] | 50 to 500 nM | 10 to 100 nM
10 | O=C(Nc1cc(OCCOc2cc(NC(=O)c3ccc(-n4ccnc4)nn3)c(C(=O)O)cc2F)c(F)cc1C(=O)O)c1ccc(-n2ccnc2)nn1 [Compound 171] | 50 to 500 nM | 10 to 100 nM
11 | O=C(Nc1cc(CCCc2cc(NC(=O)c3ccc4nnnn4n3)c(C(=O)O)cc2Cl)ccc1C(=O)O)c1ccc(-n2ccnc2)nn1 [Compound 77] | 50 to 500 nM | 10 to 100 nM
12 | O=c1oc(-c2ccc(-n3ccnc3)nn2)nc2cc(OCCCCOc3cc4nc(-c5ccc(-n6ccnc6)nn5)oc(=O)c4cc3F)ccc12 [Compound 46] | 500 to 5000 nM | 100 to 1000 nM
13 | O=C(Nc1cc(OCCCCOc2cc(NC(=O)c3ccc4nnnn4n3)c(C(=O)O)cc2Cl)ccc1C(=O)O)c1ccc(-n2ccnc2)nn1 [Compound 72] | 500 to 5000 nM | 10 to 100 nM
14 | COc1cc(C(=O)O)c(NC(=O)c2ccc(-n3ccnc3)nn2)cc1OCCc1cc(C(=O)O)c(NC(=O)c2ccc3nnnn3n2)cc1C#N [Compound 128] | 50 to 500 nM | 10 to 100 nM
15 | O=C(Nc1cc(CCCc2cnc(C(=O)O)c(NC(=O)c3ccc4nnnn4n3)c2)c(F)cc1C(=O)O)c1ccc(-n2ccnc2)nn1 [Compound 112] | 500 to 5000 nM | 10 to 100 nM
16 | O=C(Nc1cc(OCCc2cc(NC(=O)c3ccc(-n4ccnc4)nn3)c(C(O)C(=O)O)cc2F)c(F)cc1C(=O)O)c1ccc(-n2ccnc2)nn1 (stereo not shown) [Compound 154] | 500 to 5000 nM | 100 to 1000 nM
17 | COc1cc(C(=O)O)c(NC(=O)c2ccc3nnnn3n2)cc1CCCc1cc(NC(=O)c2ccc(-n3ccnc3)nn2)c(C(=O)O)cc1F [Compound 115] | 50 to 500 nM | 10 to 100 nM
18 | O=C(Nc1cc(OCCCCOc2cc(NC(=O)c3ccc(-n4ccnc4)nn3)c(C(=O)O)cc2F)c(F)cc1C(=O)O)c1ccc(-n2ccnc2)nn1 [Compound 17] | 500 to 5000 nM | 100 to 1000 nM
19 | O=C(Nc1cc(OCCc2cc(NC(=O)c3ccc4nnnn4n3)c(C(=O)O)cc2F)ccc1C(=O)O)c1ccc(-n2ccnc2)nn1 [Compound 97] | 500 to 5000 nM | 100 to 1000 nM
20 | O=C(Nc1cc(CCCc2cc(NC(=O)c3ccc4nnnn4n3)c(C(=O)O)cc2F)ccc1C(=O)O)c1ccc(-n2ccnc2)nn1 [Compound 89] | 50 to 500 nM | 10 to 100 nM
21 | O=C(Nc1cc(CCCCc2cc(NC(=O)c3ccc(-n4ccnc4)nn3)c(C(=O)O)cc2F)c(F)cc1C(=O)O)c1ccc(-n2ccnc2)nn1 [Compound 202] | 50 to 500 nM | 10 to 100 nM
22 | COc1cc(NC(=O)c2ccc(-n3ccnc3)nn2)c(C(=O)O)c(F)c1CCCc1cc(NC(=O)c2ccc(-n3ccnc3)nn2)c(C(=O)O)cc1F [Compound 170] | 50 to 500 nM | 10 to 100 nM
23 | O=C(Nc1cc(OCCCCOc2cnc(C(=O)O)c(NC(=O)c3ccc(-n4ccnc4)nn3)c2)c(F)cc1C(=O)O)c1ccc2nnnn2n1 [Compound 64] | > 5000 nM | 10 to 100 nM
24 | COC(=O)c1ccc(CCCc2cc(C(=O)O)c(NC(=O)c3ccc(-n4ccnc4)nn3)cc2F)cc1NC(=O)c1ccc(-n2ccnc2)nn1 [Compound 79] | 50 to 500 nM | 100 to 1000 nM

Further lines, results first:

Row | EC50 (THP-1 Lucia ISG cells) | IC50 (human STING protein) | SMILES
25 | 50 to 500 nM | 10 to 100 nM | COc1cc(C(=O)O)c(NC(=O)c2ccc3nnnn3n2)cc1CCCc1ccc(C(=O)O)c(NC(=O)c2ccc(-n3ccnc3)nn2)c1 [Compound 86]
26 | 500 to 5000 nM | 10 to 100 nM | CC(COc1cc(NC(=O)c2ccc(-n3ccnc3)nn2)c(C(=O)O)cc1F)COc1cc(NC(=O)c2ccc(-n3ccnc3)nn2)c(C(=O)O)cc1F [Compound 185]
27 | 50 to 500 nM | 10 to 100 nM | N#Cc1cc(C(=O)O)c(NC(=O)c2ccc(-n3ccnc3)nn2)cc1OCCc1cc(NC(=O)c2ccc(-n3ccnc3)nn2)c(C(=O)O)cc1F [Compound 167]
28 | 500 to 5000 nM | 100 to 1000 nM | COc1cc(C(=O)O)c(NC(=O)c2ccc(-n3ccnc3)nn2)cc1CCOc1cc(NC(=O)c2ccc3nnnn3n2)c(C(=O)O)cc1F [Compound 99]
29 | 50 to 500 nM | 10 to 100 nM | O=C(Nc1cc(CCCc2cc(NC(=O)c3ccc(-n4ccnc4)nn3)c(C(=O)O)nc2Cl)c(F)cc1C(=O)O)c1ccc(-n2ccnc2)nn1 [Compound 52]
30 | 50 to 500 nM | 10 to 100 nM | O=C(Nc1cc(CCCc2cc(NC(=O)c3ccc4nnnn4n3)c(C(=O)O)nc2Cl)ccc1C(=O)O)c1ccc(-n2ccnc2)nn1 [Compound 87]
31 | 50 to 500 nM | 10 to 100 nM | O=C(Nc1cc(CCOc2cc(NC(=O)c3ccc4nnnn4n3)c(C(=O)O)cc2F)c(Cl)cc1C(=O)O)c1ccc(-n2ccnc2)nn1 [Compound 196]
32 | 500 to 5000 nM | 100 to 1000 nM | COc1cc(NC(=O)c2ccc3nnnn3n2)c(C(=O)O)cc1CCCc1ccc(C(=O)O)c(NC(=O)c2ccc(-n3ccnc3)nn2)c1 [Compound 84]
33 | 500 to 5000 nM | 100 to 1000 nM | C#Cc1cc(C(=O)O)c(NC(=O)c2ccc(-n3ccnc3)nn2)cc1CCOc1cc(NC(=O)c2ccc(-n3ccnc3)nn2)c(C(=O)O)cc1F [Compound 183]
34 | 500 to 5000 nM | 100 to 1000 nM | O=C(Nc1cc(CCOc2c(F)cc(C(=O)O)c(NC(=O)c3ccc4nnnn4n3)c2F)c(F)cc1C(=O)O)c1ccc(-n2ccnc2)nn1 [Compound 118]
35 | 50 to 500 nM | 10 to 100 nM | COc1cc(C(=O)O)c(NC(=O)c2ccc(-n3ccnc3)nn2)cc1CCCc1cc(NC(=O)c2ccc3nnnn3n2)c(C(=O)O)cc1F [Compound 107]
